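48-hour exposure; five concentrations; linearly interpolated endpoints. GI50 marks 50% less growth.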 The source made the active and inactive calls. Rule as the data show it: active = GI50 up to about 1.1 µM and inactive = higher.

As a reminder, the GI50 is the concentration at which growth is held to half of that of the control.

Test systems include K562; UACC-62; 786-0; RPMI-8226; SK-OV-3; NCI-H23; HCT-116; OVCAR-3; RXF 393; Malme-3M; LOX IMVI; HL-60; HCC 2998; HOP-62; SNB-75; NCI-H460.
Test in all cases: DTP human tumour cell line panel, 48 h

Regarding `COc1cc2c([C@@H](OC(=O)c3ccccc3)c3ccc4c(c3)OCO4)nccc2c(OC)c1OC`, the GI50 in the experiment with K562 is 24.9 µM (inactive); with UACC-62, 14.7 µM (inactive); in the experiment on 786-0, > 100 µM (inactive); with RPMI-8226 it was 9.71 µM (inactive); with SK-OV-3 it was > 100 µM (inactive); in the experiment on NCI-H23, 23.7 µM (inactive). For the same compound, the GI50 in the experiment with HCT-116 is 26.9 µM (inactive); with OVCAR-3 it was 25.6 µM (inactive); in the experiment with RXF 393 it was 20.2 µM (inactive); in the experiment with Malme-3M, 64.6 µM (inactive); with LOX IMVI, 29.2 µM (inactive); with HL-60, 16.4 µM (inactive). The GI50 in the experiment with HCC 2998 is 92 µM (inactive); in the experiment on HOP-62, > 100 µM (inactive); in the experiment on SNB-75, 11.8 µM (inactive); with NCI-H460, 54 µM (inactive).

As for `O=c1[nH][nH]c(=O)[nH]1`, the GI50 in the experiment on K562, in the experiment on UACC-62, with 786-0, with RPMI-8226, with SK-OV-3 and with NCI-H23 was > 100 µM (inactive) each time. Besides, the GI50 in the experiment with HCT-116, in the experiment with OVCAR-3, with RXF 393, in the experiment on Malme-3M, in the experiment on LOX IMVI and in the experiment with HL-60 was > 100 µM (inactive) in each case. Besides, the GI50 in the experiment with HCC 2998, in the experiment with HOP-62, with SNB-75 and with NCI-H460 was > 100 µM (inactive) in each case.

With `CC12CCC(=O)N1c1cccnc1N2` (centres undefined), the GI50 with K562, with UACC-62, in the experiment with 786-0, in the experiment with RPMI-8226, with SK-OV-3 and in the experiment with NCI-H23 was > 100 µM (inactive) in each case. For the same compound, the GI50 in the experiment on OVCAR-3, in the experiment with RXF 393, in the experiment on Malme-3M, with LOX IMVI, in the experiment on HL-60 and with HCC 2998 was > 100 µM (inactive) in each case. Also, the GI50 with HOP-62, in the experiment on SNB-75 and in the experiment with NCI-H460 was > 100 µM (inactive) each time.

As to `COC1C(OC(=O)c2ccc(C)[nH]2)C(O)C(Oc2ccc3c(O)c(NC(=O)c4c[nH]c(C(=O)Nc5c(O)c6ccc(OC7OC(C)(C)C(OC)C(OC(=O)c8ccc(C)[nH]8)C7O)c(C)c6oc5=O)c4C)c(=O)oc3c2C)OC1(C)C` (centres undefined), the GI50 is 2.84 µM (inactive) in the experiment on K562; 0.724 µM (active) in the experiment with UACC-62; 2.1 µM (inactive) in the experiment with 786-0; 1.53 µM (inactive) in the experiment on RPMI-8226; 2.15 µM (inactive) in the experiment with SK-OV-3; 1.24 µM (inactive) with NCI-H23. Moreover, the GI50 is 3.26 µM (inactive) in the experiment with OVCAR-3; 0.794 µM (active) in the experiment on RXF 393; 2.09 µM (inactive) in the experiment on Malme-3M; 2.77 µM (inactive) with LOX IMVI; 1.83 µM (inactive) in the experiment with HL-60; 2.59 µM (inactive) in the experiment with HCC 2998. Also, the GI50 with SNB-75 was 0.708 µM (active); with NCI-H460, 1.88 µM (inactive).

On to `CC12CCC([C@H](N3CCOCC3)/C1=N\OCCN1CCCC1)C2(C)C` (some centres undefined), for which the GI50 in the experiment with K562, with UACC-62, with 786-0, in the experiment with RPMI-8226, with SK-OV-3 and in the experiment on NCI-H23 was > 100 µM (inactive) in each case. The GI50 with HCT-116, with OVCAR-3, in the experiment on RXF 393, in the experiment with Malme-3M, in the experiment on LOX IMVI and with HL-60 was > 100 µM (inactive) throughout. Besides, the GI50 in the experiment with HCC 2998, in the experiment on HOP-62, with SNB-75 and with NCI-H460 was > 100 µM (inactive) in each case.

With `CC1=Nc2ccccc2S(=O)(=O)N1`, the GI50 in the experiment on K562, in the experiment on UACC-62, with 786-0, with SK-OV-3, in the experiment with NCI-H23 and with HCT-116 was > 100 µM (inactive) each time. In addition, the GI50 in the experiment on OVCAR-3, in the experiment on RXF 393, in the experiment with Malme-3M, in the experiment with LOX IMVI, in the experiment on HL-60 and in the experiment with HCC 2998 was > 100 µM (inactive) in each case. Further, the GI50 in the experiment with HOP-62, in the experiment with SNB-75 and with NCI-H460 was > 100 µM (inactive) in each case.

Take `COc1cc(C(=O)C/C(CCC(=O)Nc2ccc(Cl)cc2Cl)=N/Nc2nnc(C)n2N)ccc1O`: the GI50 is > 10 µM (inactive) in the experiment with K562; > 100 µM (inactive) with UACC-62; > 100 µM (inactive) in the experiment on 786-0; > 100 µM (inactive) in the experiment on RPMI-8226; > 100 µM (inactive) in the experiment on SK-OV-3; > 100 µM (inactive) in the experiment with NCI-H23. Also, the GI50 in the experiment with HCT-116, with OVCAR-3, in the experiment with RXF 393, in the experiment with Malme-3M, in the experiment with LOX IMVI and in the experiment on HL-60 was > 100 µM (inactive) throughout. Moreover, the GI50 in the experiment on HCC 2998, with HOP-62, in the experiment on SNB-75 and with NCI-H460 was > 100 µM (inactive) throughout.

For `CCc1ccc(Nc2ccc([N+](=O)[O-])cc2[N+](=O)[O-])cc1`, the GI50 in the experiment with K562 was 29.8 µM (inactive); with UACC-62, 56.6 µM (inactive); in the experiment on 786-0, > 100 µM (inactive); in the experiment with RPMI-8226 it was 39.1 µM (inactive); in the experiment on SK-OV-3, > 100 µM (inactive); with NCI-H23, 71.1 µM (inactive). Besides, the GI50 is 36.7 µM (inactive) in the experiment on HCT-116; 44.4 µM (inactive) in the experiment with OVCAR-3; 71.4 µM (inactive) in the experiment on RXF 393; > 100 µM (inactive) with Malme-3M; 26.8 µM (inactive) with HL-60; > 100 µM (inactive) in the experiment with HCC 2998. In addition, the values for the GI50 in the experiment with HOP-62, with SNB-75 and in the experiment on NCI-H460 were > 100 µM (inactive), 39.7 µM (inactive) and 69.2 µM (inactive), respectively.

Regarding `CNC(SC)=C1C(=O)OC(C)(C)OC1=O`, the GI50 in the experiment with K562, with UACC-62, in the experiment on 786-0, in the experiment on RPMI-8226, in the experiment on SK-OV-3 and in the experiment on NCI-H23 was > 100 µM (inactive) each time. For the same compound, the GI50 in the experiment with HCT-116 was 58.2 µM (inactive); with OVCAR-3, > 100 µM (inactive); with RXF 393, 68.9 µM (inactive); with Malme-3M, > 100 µM (inactive); in the experiment on LOX IMVI it was 73.3 µM (inactive); with HL-60, > 100 µM (inactive). Further, the GI50 with HCC 2998 was > 100 µM (inactive); in the experiment with HOP-62, > 100 µM (inactive); in the experiment on SNB-75, > 100 µM (inactive); in the experiment on NCI-H460 it was 50 µM (inactive).

As for `CC(=O)O[C@H]1CCC2[C@@H]3CCC4c5nonc5CC[C@]4(C)C3CC[C@@]21C` (some centres undefined), the GI50 in the experiment on K562, with UACC-62, in the experiment on 786-0, with SK-OV-3, in the experiment on NCI-H23 and in the experiment on HCT-116 was > 10 µM (inactive) throughout. Also, the GI50 in the experiment on RXF 393, in the experiment on Malme-3M, in the experiment with LOX IMVI, with HL-60, in the experiment on HCC 2998 and with HOP-62 was > 10 µM (inactive) in each case. Besides, the GI50 in the experiment on SNB-75 was 51.3 µM (inactive); in the experiment on NCI-H460 it was > 10 µM (inactive).

Regarding `COC(=O)c1cc2cc(OC)c(OC)cc2cc(C(=O)OC)c1=O`, the GI50 in the experiment on K562, with UACC-62, with 786-0, with RPMI-8226, with SK-OV-3 and in the experiment with NCI-H23 was > 100 µM (inactive) in each case. In addition, the GI50 in the experiment with HCT-116 was > 100 µM (inactive); with OVCAR-3, > 100 µM (inactive); with RXF 393, > 100 µM (inactive); in the experiment on Malme-3M it was > 100 µM (inactive); with LOX IMVI it was 87.3 µM (inactive); in the experiment with HL-60, > 100 µM (inactive). In addition, the GI50 in the experiment with HCC 2998, with HOP-62, with SNB-75 and in the experiment on NCI-H460 was > 100 µM (inactive) in each case.

Take `O=C(CCN1CCN(c2ccccc2)CC1)N1CCc2c([nH]c3ccccc23)C1c1cccnc1` (centres undefined): the GI50 in the experiment with K562 is 15.9 µM (inactive); with UACC-62, > 10 µM (inactive); in the experiment with 786-0, 15.4 µM (inactive); with RPMI-8226, > 10 µM (inactive); in the experiment on SK-OV-3 it was 18.1 µM (inactive); in the experiment on NCI-H23, 21 µM (inactive). Further, the GI50 in the experiment on HCT-116 was 14.9 µM (inactive); with OVCAR-3, 16.7 µM (inactive); with RXF 393 it was 24.6 µM (inactive); in the experiment on Malme-3M, 19.1 µM (inactive); in the experiment with LOX IMVI, 16.1 µM (inactive); in the experiment on HL-60 it was 14.3 µM (inactive). In addition, the GI50 is 21.7 µM (inactive) in the experiment on HCC 2998, 20.8 µM (inactive) in the experiment with HOP-62, 28.8 µM (inactive) in the experiment on SNB-75 and 16.6 µM (inactive) in the experiment on NCI-H460.

Consider `C=CCC(O)c1cc(OC)ccc1OC` (centres undefined), for which the GI50 with K562, in the experiment with UACC-62, in the experiment with 786-0, in the experiment on RPMI-8226, in the experiment with SK-OV-3 and in the experiment with OVCAR-3 was > 100 µM (inactive) each time. Moreover, the GI50 with RXF 393, in the experiment with Malme-3M, with LOX IMVI, in the experiment with HL-60, in the experiment with HCC 2998 and in the experiment on HOP-62 was > 100 µM (inactive) throughout. The GI50 in the experiment with SNB-75 and in the experiment with NCI-H460 was > 100 µM (inactive) throughout.

The values are drawn from ChEMBL document CHEMBL1201862, “PubChem BioAssay data set” (2004).
